Results from patent US4599337A, “Antiphlogistic/antipyretic/analgesic agents containing theobromine or theophylline derivatives as active ingredient” (Eisai Co., Ltd., priority 1985, dated 1986).
Like-named read-outs stand apart in the source and are kept apart here.

What was measured:
SD male rats [1] = experiment: Antipyretic activity, dry yeast-induced fever; assay type: in vivo, rat (SD male); details: Rattus norvegicus, po, p.o.
Description: A 2% suspension of dry yeast was injected subcutaneously to SD male rats of 250 to 300 g body weight in an amount of 2 ml/animal to cause a fever, and 4 hours later, the compounds of this invention and control drugs were administered orally. The rectal temperature of each rat was measured periodically, and the dosage of each compound required to reduce the fever by more than 1° C. at the peak of its activity was determined.

Wistar rats = experiment: Antiphlogistic activity, carrageenin paw edema; assay type: in vivo, rat (Wistar); details: Rattus norvegicus, po, 3 h
Description: Each test compound of this invention was administered orally to Wistar rats of about 300 g body weight, and 30 minutes later 0.05 ml of a 1% carrageenin solution was injected into a paw of each rat.

Acute toxicity in mice = experiment: Acute toxicity in mice; parameters: species or system mouse (ddy male); details: mouse, in vivo, po
Description: (§1) Ten mice were used for each dose and morality was determined for 3 days after administration of each test compound of the invention. In the case of the rats, 5 rats were used for each dose and morality was determined 7 days after administrations.

Acute toxicity in rats = experiment: Acute toxicity in rats; parameters: species or system rat (SD male); details: rat, in vivo, po
Description: as §1

ddy-strain male mice = experiment: Analgesic activity, acetic acid writhing method; assay type: in vivo, mouse (ddy-strain male); details: p.o.; for Analgesic activity ED50: acetic acid writhing
Description: (a) Acetic acid writhing method^1
A 0.7% acetic acid solution was injected intraperitoneally to ddy-strain male mice (20 to 25 g) in an amount of 0.1 ml per 10 g mouse body weight to cause a writhing syndrome typified by stretching of the hind legs. The inhibitory action of each test compound against said symptom was observed as a measure of the analgesic activity of the compound. In the tests, each of the compounds of this invention and each of the control drugs listed below were administered orally to each test animal, and 50 minutes later said acetic acid solution was injected in the manner described above and the total number of typical writhes was determined over a period of 15 minutes.

SD male rats [2] = experiment: Analgesic activity, bradykinin-induced pain response; assay type: in vivo, rat (SD male); details: p.o.; for Safety margin (LD50 /ED50): Table 2, rats; for Analgesic activity ED50 / Saftety margin (LD50 /ED50): Table 4, rats
Description: (b) Bradykinin-induced pain response^3,4
A polyethylene tube was inserted into a common right carotid artery of SD male rats (250 to 350 g) and 0.5 microngram per 0.1 ml of bradykinin was injected into the artery through said tube. Response induced by bradykinin such as flexin of the right forelimb, dextro-rotation of the head and rearing were considered as being indices of pain response, and the analgesic action of each test compound was determined by observing its inhibition of responses such symptoms.

ddy male mice = details: p.o., given in Japan National Formulary, 6th Ed. (1982), 4320 min, cited from earlier work
SD male rats [3] = details: p.o., given in Japan National Formulary, 6th Ed. (1982), 10080 min, cited from earlier work
[4] = Table 5, rats, read-out: ED (effective dose for reducing the fever by more than 1° C. when the compound action is at the peak)
[5] = rats, read-out: effective dose ED for reducing the fever by more than 1° C. at the peak of its activity

Cn1c(=O)c2c(ncn2CCCCN2CCN(c3ccc(Cl)cc3)CC2)n(C)c1=O [Compound D]
ED (fever reduced by more than 1 degC) (SD male rats [1]; [4]): 40 mg/kg | ED30 (Wistar rats; Table 6, rats): 25 mg/kg | LD50 at 72 h (Acute toxicity in mice; Table 1, mice): 575 mg/kg | LD50 at 168 h (Acute toxicity in rats; Table 2, rats): 505 mg/kg

Cn1cnc2c1c(=O)n(CCCCN1CCN(c3ccc(Cl)c(Cl)c3)CC1)c(=O)n2C [Compound F', 1-(4-(4-(3,4-dichlorophenyl)piperazinyl-(1))-n-butyl)theobromine.2HCl]
LD50 at 72 h (Acute toxicity in mice; Table 3, mice): 400 to 800 mg/kg

O=C(Cn1c(=O)sc2ccc(Cl)cc21)N1CCN(CCO)CC1 [Control drug II, 4-((5-chloro-2-oxo-3(2H)-benzothiazolyl)acetyl)-1-piperazineethanol]
Safety margin (LD50 /ED50) (ddy-strain male mice; Table 1, mice): 8.5 | Safety margin (LD50 /ED50) (ddy-strain male mice; Table 3, mice): 8.5 | Analgesic activity ED50 (ddy-strain male mice; Table 3, mice): 66 mg/kg | Safety margin (LD50 /ED50) (SD male rats [2]): ≤ 23 | Analgesic activity ED50 (SD male rats [2]): ≥ 160 mg/kg | Saftety margin (LD50 /ED50) (SD male rats [2]): ≤ 23 | ED (fever reduced by more than 1 degC) (SD male rats [1]; [5]): 40 mg/kg | ED (fever reduced by more than 1 degC) (SD male rats [1]; [4]): 40 mg/kg | Acute toxicity LD50 (ddy male mice; Table 1, mice): 664 mg/kg | Acute toxicity LD50 (ddy male mice; Table 3, mice): 564 mg/kg

Cn1c(=O)c2c(ncn2CCCCCN2CCN(c3cccc(C(F)(F)F)c3)CC2)n(C)c1=O [Compound F]
ED (fever reduced by more than 1 degC) (SD male rats [1]; [4]): 10 mg/kg | ED30 (Wistar rats; Table 6, rats): 25 mg/kg | LD50 at 72 h (Acute toxicity in mice; Table 1, mice): ≥ 800 mg/kg | LD50 at 168 h (Acute toxicity in rats; Table 2, rats): 660 mg/kg

COc1ccccc1N1CCN(CCCCn2c(=O)c3c(ncn3C)n(C)c2=O)CC1 [Compound D', 1-(4-(4-o-methoxyphenylpiperazinyl-(1))-n-butyl)theobromine.2HCl]
LD50 at 72 h (Acute toxicity in mice; Table 3, mice): 400 to 800 mg/kg

Cc1ccc(N2CCN(CCCn3cnc4c3c(=O)n(C)c(=O)n4C)CC2)cc1C [Compound C]
ED (fever reduced by more than 1 degC) (SD male rats [1]; [4]): 10 mg/kg | LD50 at 72 h (Acute toxicity in mice; Table 1, mice): ≥ 800 mg/kg | LD50 at 168 h (Acute toxicity in rats; Table 2, rats): 770 mg/kg

Cn1c(=O)c2c(ncn2CCCCN2CCN(c3ccc(F)cc3)CC2)n(C)c1=O [Compound A]
ED (fever reduced by more than 1 degC) (SD male rats [1]; [4]): 10 mg/kg | ED30 (Wistar rats; Table 6, rats): 10 mg/kg | LD50 at 72 h (Acute toxicity in mice; Table 1, mice): 344 mg/kg | LD50 at 168 h (Acute toxicity in rats; Table 2, rats): 353 to 500 mg/kg

Cc1cccc(N2CCN(CCn3c(=O)c4c(ncn4C)n(C)c3=O)CC2)c1C [Compound B', 1-(2-(4-(2,3-dimethylphenyl)piperazinyl-(1))-ethyl)theobromine.2HCl]
LD50 at 72 h (Acute toxicity in mice; Table 3, mice): 600 mg/kg | LD50 at 168 h (Acute toxicity in rats; Table 4, rats): ≥ 2000 mg/kg

Cn1c(=O)c2c(ncn2CCCCCN2CCN(c3ccc(Cl)cc3)CC2)n(C)c1=O [Compound B]
ED (fever reduced by more than 1 degC) (SD male rats [1]; [4]): 40 mg/kg | ED30 (Wistar rats; Table 6, rats): 50 mg/kg | LD50 at 72 h (Acute toxicity in mice; Table 1, mice): 704 mg/kg | LD50 at 168 h (Acute toxicity in rats; Table 2, rats): 353 to 500 mg/kg

Cn1cnc2c1c(=O)n(CCCN1CCN(c3ccc(Cl)c(Cl)c3)CC1)c(=O)n2C [Compound A', 1-(3-(4-(3,4-dichlorophenyl)piperazinyl-(1))-n-propyl)theobromine]
ED (fever reduced by more than 1 degC) (SD male rats [1]; [5]): 40 mg/kg | ED30 (Wistar rats; Table 7, rats): 25 mg/kg

Cn1cnc2c1c(=O)n(CCCN1CCN(c3ccccc3Cl)CC1)c(=O)n2C [Compound C', 1-(3-(4-o-chlorophenylpiperazinyl-(1))-n-propyl)theobromine.2HCl]
ED30 (Wistar rats; Table 7, rats): 10 mg/kg | LD50 at 72 h (Acute toxicity in mice; Table 3, mice): 200 mg/kg

COc1cc(C)nc(-n2nc(C)cc2OC)n1 [Control drug I, 4-methoxy-2-(5-methoxy-3-methylpyrazol-1-yl)-6-methylpyrimidine]
Safety margin (LD50 /ED50) (ddy-strain male mice; Table 1, mice): 4.3 | Safety margin (LD50 /ED50) (ddy-strain male mice; Table 3, mice): 4.3 | Analgesic activity ED50 (ddy-strain male mice; Table 3, mice): 240 mg/kg | Safety margin (LD50 /ED50) (SD male rats [2]): ≤ 3 | Analgesic activity ED50 (SD male rats [2]): ≥ 160 mg/kg | Saftety margin (LD50 /ED50) (SD male rats [2]): ≤ 3 | ED (fever reduced by more than 1 degC) (SD male rats [1]; [5]): 40 mg/kg | ED (fever reduced by more than 1 degC) (SD male rats [1]; [4]): 40 mg/kg | Acute toxicity LD50 (ddy male mice; Table 1, mice): 1,022 mg/kg | Acute toxicity LD50 (ddy male mice; Table 3, mice): 1022 mg/kg | Acute toxicity LD50 (SD male rats [3]; Table 2, rats): 526 mg/kg | Acute toxicity LD50 (SD male rats [3]; Table 4, rats): 526 mg/kg

Cn1cnc2c1c(=O)n(CCCCN1CCN(c3ccc(F)cc3)CC1)c(=O)n2C [Compound E', 1-(4-(4-p-fluoropenylpiperazinyl-(1))-n-butyl)theobromine.2HCl]
ED30 (Wistar rats; Table 7, rats): 25 mg/kg | LD50 at 72 h (Acute toxicity in mice; Table 3, mice): 200 mg/kg

OC(CN1CCCCC1)c1cc(-c2ccccc2)on1 (centres unmarked) [Control drug III, 3-(1-hydroxy-2-piperadinoethyl)-5-phenyl-isoxazole]
Safety margin (LD50 /ED50) (ddy-strain male mice; Table 1, mice): 5.1 | Safety margin (LD50 /ED50) (ddy-strain male mice; Table 3, mice): 5.1 | Analgesic activity ED50 (ddy-strain male mice; Table 3, mice): 120 mg/kg | Safety margin (LD50 /ED50) (SD male rats [2]): 12 | Saftety margin (LD50 /ED50) (SD male rats [2]): 12 | ED (fever reduced by more than 1 degC) (SD male rats [1]; [5]): 160 mg/kg | ED (fever reduced by more than 1 degC) (SD male rats [1]; [4]): 160 mg/kg | Acute toxicity LD50 (ddy male mice; Table 1, mice): 612 mg/kg | Acute toxicity LD50 (ddy male mice; Table 3, mice): 612 mg/kg | Acute toxicity LD50 (SD male rats [3]; Table 2, rats): 1,978 mg/kg | Acute toxicity LD50 (SD male rats [3]; Table 4, rats): 1,978 mg/kg

Cc1cccc(N2CCN(CCCCCn3c(=O)c4c(ncn4C)n(C)c3=O)CC2)c1 [Compound G', 1-(5-(4-m-methylphenylpiperazinyl-(1))-n-pentyl)theobromine.2HCl]
Safety margin (LD50 /ED50) (ddy-strain male mice; Table 3, mice): 22 | ED30 (Wistar rats; Table 7, rats): 25 mg/kg | LD50 at 72 h (Acute toxicity in mice; Table 3, mice): 300 mg/kg
